In PubChem BioAssay (NCI):
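A five-concentration, 48-hour dose response in 96-well plates underlies each endpoint, interpolated linearly between surrounding concentrations. Abbreviation: GI50, concentration required for 50% inhibition of growth. TGI marks complete inhibition of growth.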

Tests used:
Assay in all cases: NCI-60 cell line screen, 48 h
DU-145 prostate = tested on: DU-145 prostate
ACHN renal = tested on: ACHN renal
A498 renal = tested on: A498 renal
OVCAR-8 ovarian = tested on: OVCAR-8 ovarian
OVCAR-4 ovarian = tested on: OVCAR-4 ovarian
A549 NSCLC = tested on: A549 NSCLC
MALME-3M melanoma = tested on: MALME-3M melanoma
MDA-MB-435 = tested on: MDA-MB-435
SF-268 CNS = tested on: SF-268 CNS
SK-MEL-2 melanoma = tested on: SK-MEL-2 melanoma
NCI-H522 lung = tested on: NCI-H522 lung
COLO 205 colon = tested on: COLO 205 colon
HCT-116 colon = tested on: HCT-116 colon
RXF 393 renal = tested on: RXF 393 renal
SNB-75 CNS = tested on: SNB-75 CNS
RPMI-8226 leukemia = tested on: RPMI-8226 leukemia
HOP-62 NSCLC = tested on: HOP-62 NSCLC
SW-620 colon = tested on: SW-620 colon
CAKI-1 renal = tested on: CAKI-1 renal
LOX IMVI melanoma = tested on: LOX IMVI melanoma
U251 CNS = tested on: U251 CNS
786-0 renal = tested on: 786-0 renal
SN12C renal = tested on: SN12C renal
HCT-15 colon = tested on: HCT-15 colon
SF-295 CNS = tested on: SF-295 CNS
OVCAR-5 ovarian = tested on: OVCAR-5 ovarian
SF-539 CNS = tested on: SF-539 CNS
HS 578T breast = tested on: HS 578T breast
MCF7 breast = tested on: MCF7 breast
SK-MEL-28 melanoma = tested on: SK-MEL-28 melanoma
T-47D breast = tested on: T-47D breast
PC-3 prostate = tested on: PC-3 prostate
UACC-62 melanoma = tested on: UACC-62 melanoma
KM12 colon = tested on: KM12 colon
UO-31 renal = tested on: UO-31 renal
TK-10 renal = tested on: TK-10 renal
SK-OV-3 ovarian = tested on: SK-OV-3 ovarian
HOP-92 NSCLC = tested on: HOP-92 NSCLC
M14 melanoma = tested on: M14 melanoma
MDA-MB-231 breast = tested on: MDA-MB-231 breast
HT29 colon = tested on: HT29 colon
IGROV1 ovarian = tested on: IGROV1 ovarian
NCI-H23 lung = tested on: NCI-H23 lung
NCI-H226 lung = tested on: NCI-H226 lung
EKVX NSCLC = tested on: EKVX NSCLC
BT-549 breast = tested on: BT-549 breast
NCI-H460 lung = tested on: NCI-H460 lung
OVCAR-3 ovarian = tested on: OVCAR-3 ovarian
HCC-2998 colon = tested on: HCC-2998 colon
SNB-19 CNS = tested on: SNB-19 CNS
SK-MEL-5 melanoma = tested on: SK-MEL-5 melanoma
NCI/ADR-RES ovarian = tested on: NCI/ADR-RES ovarian
UACC-257 melanoma = tested on: UACC-257 melanoma

For `C(=N/N(Cc1ccccc1)Cc1ccccc1)/c1ccccc1`, the GI50 (DU-145 prostate) was > 100 µM, the TGI (DU-145 prostate) was > 100 µM and the GI50 (ACHN renal) was > 100 µM. The TGI (ACHN renal) was > 100 µM, the GI50 (A498 renal) was 94.9 µM and the TGI (A498 renal) was > 100 µM. The GI50 (OVCAR-8 ovarian) was > 100 µM, the TGI (OVCAR-8 ovarian) was > 100 µM and the GI50 (OVCAR-4 ovarian) was > 100 µM. The TGI (OVCAR-4 ovarian) was > 100 µM, the GI50 (A549 NSCLC) was > 100 µM and the TGI (A549 NSCLC) was > 100 µM. The GI50 (MALME-3M melanoma) was 41.1 µM, the TGI (MALME-3M melanoma) was > 100 µM and the GI50 (MDA-MB-435) was 77.3 µM. The TGI (MDA-MB-435) was > 100 µM, the GI50 (SF-268 CNS) was > 100 µM and the TGI (SF-268 CNS) was > 100 µM. For the same molecule, the GI50 (SK-MEL-2 melanoma) was 25 µM, the TGI (SK-MEL-2 melanoma) was 72.6 µM and the GI50 (NCI-H522 lung) was > 100 µM. The TGI (NCI-H522 lung) was > 100 µM, the GI50 (COLO 205 colon) was > 100 µM and the TGI (COLO 205 colon) was > 100 µM. For the same molecule, the GI50 (HCT-116 colon) was 26.1 µM, the TGI (HCT-116 colon) was > 100 µM and the GI50 (RXF 393 renal) was 66.3 µM. The TGI (RXF 393 renal) was > 100 µM, the GI50 (SNB-75 CNS) was > 100 µM and the TGI (SNB-75 CNS) was > 100 µM. The GI50 (RPMI-8226 leukemia) was 51.8 µM, the TGI (RPMI-8226 leukemia) was > 100 µM and the GI50 (HOP-62 NSCLC) was > 100 µM. The TGI (HOP-62 NSCLC) was > 100 µM, the GI50 (SW-620 colon) was > 100 µM and the TGI (SW-620 colon) was > 100 µM. The GI50 (CAKI-1 renal) was > 100 µM, the TGI (CAKI-1 renal) was > 100 µM and the GI50 (LOX IMVI melanoma) was > 100 µM. The TGI (LOX IMVI melanoma) was > 100 µM, the GI50 (U251 CNS) was > 100 µM and the TGI (U251 CNS) was > 100 µM. For the same molecule, the GI50 (786-0 renal) was > 100 µM, the TGI (786-0 renal) was > 100 µM and the GI50 (SN12C renal) was > 100 µM. For the same molecule, the TGI (SN12C renal) was > 100 µM, the GI50 (HCT-15 colon) was > 100 µM and the TGI (HCT-15 colon) was > 100 µM. The GI50 (SF-295 CNS) was 44.5 µM, the TGI (SF-295 CNS) was > 100 µM and the GI50 (OVCAR-5 ovarian) was > 100 µM. The TGI (OVCAR-5 ovarian) was > 100 µM, the GI50 (SF-539 CNS) was > 100 µM and the TGI (SF-539 CNS) was > 100 µM. For the same molecule, the GI50 (HS 578T breast) was 51.1 µM, the TGI (HS 578T breast) was > 100 µM and the GI50 (MCF7 breast) was 42.9 µM. For the same molecule, the TGI (MCF7 breast) was > 100 µM, the GI50 (SK-MEL-28 melanoma) was > 100 µM and the TGI (SK-MEL-28 melanoma) was > 100 µM. The GI50 (T-47D breast) was 72.4 µM, the TGI (T-47D breast) was > 100 µM and the GI50 (PC-3 prostate) was > 100 µM. The TGI (PC-3 prostate) was > 100 µM, the GI50 (UACC-62 melanoma) was 75 µM and the TGI (UACC-62 melanoma) was > 100 µM. For the same molecule, the GI50 (KM12 colon) was > 100 µM, the TGI (KM12 colon) was > 100 µM and the GI50 (UO-31 renal) was > 100 µM. For the same molecule, the TGI (UO-31 renal) was > 100 µM, the GI50 (TK-10 renal) was > 100 µM and the TGI (TK-10 renal) was > 100 µM. For the same molecule, the GI50 (SK-OV-3 ovarian) was > 100 µM, the TGI (SK-OV-3 ovarian) was > 100 µM and the GI50 (HOP-92 NSCLC) was 53.3 µM. The TGI (HOP-92 NSCLC) was > 100 µM, the GI50 (M14 melanoma) was 90.1 µM and the TGI (M14 melanoma) was > 100 µM. For the same molecule, the GI50 (MDA-MB-231 breast) was > 100 µM, the TGI (MDA-MB-231 breast) was > 100 µM and the GI50 (HT29 colon) was 24.7 µM. The TGI (HT29 colon) was > 100 µM, the GI50 (IGROV1 ovarian) was > 100 µM and the TGI (IGROV1 ovarian) was > 100 µM. For the same molecule, the GI50 (NCI-H23 lung) was 90.8 µM, the TGI (NCI-H23 lung) was > 100 µM and the GI50 (NCI-H226 lung) was > 100 µM. For the same molecule, the TGI (NCI-H226 lung) was > 100 µM, the GI50 (EKVX NSCLC) was 59.3 µM and the TGI (EKVX NSCLC) was > 100 µM. The GI50 (BT-549 breast) was > 100 µM, the TGI (BT-549 breast) was > 100 µM and the GI50 (NCI-H460 lung) was > 100 µM. For the same molecule, the TGI (NCI-H460 lung) was > 100 µM, the GI50 (OVCAR-3 ovarian) was > 100 µM and the TGI (OVCAR-3 ovarian) was > 100 µM. The GI50 (HCC-2998 colon) was > 100 µM, the TGI (HCC-2998 colon) was > 100 µM and the GI50 (SNB-19 CNS) was > 100 µM. The TGI (SNB-19 CNS) was > 100 µM, the GI50 (SK-MEL-5 melanoma) was 55.4 µM and the TGI (SK-MEL-5 melanoma) was > 100 µM. The GI50 (NCI/ADR-RES ovarian) was > 100 µM, the TGI (NCI/ADR-RES ovarian) was > 100 µM and the GI50 (UACC-257 melanoma) was 96.9 µM. The TGI (UACC-257 melanoma) was > 100 µM.
